This is an account of results in patent publication US7629368B2, “Nitroderivatives as drugs for diseases having an inflammatory basis” (Nicox S.A., priority 2000, dated 2009).

Where a name gives a salt, the structure may show the parent alone.

In test [1] the test system is Human adenocarcinoma HT29 cells. Briefly: 3H-timidine incorporation in human adenocarcinoma HT29 cells. To be noted: 15 hours, cells treated only with Cisplatinum = 100; for timidine incorporation, With 25 μM Cisplatinum: compound 200 μM plus Cisplatinum 25 μM; for timidine incorporation, Without Cisplatinum: compound 200 μM. Format: cell-based. As to the method:
Determination In Vitro of the Effect of the Compounds of the Invention on the Timidine Incorporation in Human Adeno-Carcinoma HT29 Cells. Human adenocarcinoma cells are sown on plates having 24 wells (2.5×10^5 cells/plate) with a standard culture medium. After 24 hours some plates are inoculated with the tested compounds dissolved in dimethylsulphoxide at a 200 μM concentration and others are treated with the tested compounds dissolved in dimethylsulphoxide at a 200 μM concentration in the presence of a solution of cisplatinum 25 μM. After 15 hours of incubation the plates are put into contact with a solution of ^3H-timidine […] (RAS. 3,000 Ci/mol). The cell monolayer of each plate is first washed twice with a cold saline buffer, then treated with TCA (trichloroacetic acid) at 5% for 10 minutes and then washed three times with absolute alcohol. The cells of each well are dissolved in 500 μl of NaOH 0.1N and the incorporated radioactivity is determined by scintallation counting. The obtained results are reported in Table 4 and expressed as percentage of ^3H-Timidine incorporated in the cells treated with the tested compounds and in the presence of Cisplatinum, considering equal to 100 the amount of ^3H-Timidine incorporated in the cells treated only with Cisplatinum.

Test [2] relates to Human adenocarcinoma (HT29) cells. Briefly: Antiproliferative activity in cancerous cells, cellular growth by haemocytometer. Format: cell-based. To be noted: 96 hours, controls = 100, read-out: Proliferation %. As to the method:
Determination of the Antiproliferative Activity of the Compounds of the Invention in Cancerous Cells.
Human adenocarcinoma (HT29) cells taken from colon affected by cancerous process were transferred into plates with 24 wells containing a cellular culture medium formed by 10% of foetal bovine serum, penicillin (50 U/ml), streptomycin ([…]) and PEG 400 (polyethylenglycol). After 24 hours a part of the plates is inoculated with the tested compounds dissolved in the carrier (PEG 400). 96 hours after the inoculation of the compounds the cellular growth was measured by haemocytometer. The results, reported in Table 2, are expressed as percentage of the cellular proliferation with respect to the controls.

Test [3] deals with liver injury induced by concanavalin A. Briefly: Protection from liver injury induced by concanavalin A. Format: in vivo. To be noted: ip, plasmatic glutamic-pyruvic transaminase vs treated control group (=100), 8 hours after concanavalin A 0.3 mg/rat i.v.; for response vs control in vivo at 300 mg/kg: 300 mg/kg intraperitoneal; for response vs control in vivo at 500 mg/kg: 500 mg/kg intraperitoneal; for response vs control in vivo at 200 mg/kg: 200 mg/kg intraperitoneal. An excerpt: Determination of the capability of the compounds of the invention to protect the animals from the liver injury induced by concanavalin A.
The model in vivo used in the present example has been described in Tiegs G, Hentshel J, A Wendel. A T cell-dependent experimental liver injury in mice induced by Concanavalin A. J. Clin. Invest. 1992; 90:196-203.
The animals ([…] of Swiss stock weighing about 20 g) are divided in groups of at least No. 10 animals for group.
The animals receive concanavalin and solvent (treated control group), solvent (polyethylene glycol 400-untreated control group), concanavalin and tested compound dissolved in the solvent (treated groups).
Rats are treated intravenously with concanavalin A (0.3 mg/rat), and after 5 minutes they receive by intraperitoneal injection the tested compounds, at the doses reported in Table 1, dissolved in polyethylenglycol 400.
Eight hours after the concanavalin A injection all the animals were sacrificed and the blood collected and examined. The data, reported in Table 1, are expressed as value of the plasmatic glutamic-pyruvic transaminase percentage of the animals treated with the tested compound with respect to the animals of the treated control group.

Test [4] has as its system PNT1A human epithelial cells of prostate cancer. Briefly: Antiproliferative activity, MTT, prostate cancer line PNT1A. Format: cell-based. Conditions: 96 h, 4 days, vs DMSO 1%, read-out: Inhibition of the proliferative activity (%); for inhibition at 100 µM: 10^-4 M; for inhibition at 10 µM: 10^-5 M; for inhibition at 1 µM: 10^-6 M. As to the method: (§1) Determination of the Antiproliferative Activity of the Compounds of the Invention in Cancerous Epithelial Cells of Bladder and Prostate.
(§2) The experiment was carried out by using three human epithelial cellular lines of the prostate cancer (PNT1A; LLNCaP; PC3) and three human epithelial cellular lines of the bladder cancer (T24; 647V; 1207), the various types of cellular lines are identified on the basis of the characteristics, in particular of the aggressiveness, of the cancerous process.
(§3) The cancerous cells are sown, with an initial concentration of 20,000 cells/cm^2, in plates having 96 wells with a cellular culture medium RPMI added with foetal bovine serum 5% and L-Glutamine 1%. Solutions in dimethylsulphoxide of the tested compounds at three different concentrations (10^−6 M; 10^−5M; 10^−4M) or the carrier (DMSO 1%) are added to the culture medium. 4 days after the treatment the cellular growth was measured by the method with MTT (3-[4,5-dimethylthiazol-2-yl]-2,5-diphenyltetrazolium bromide) de-scribed by Turner in: Turner T., Chen P., Goodly L. J., Wells A. Clin. Exp. Metastasis 1996, 14, 409-418. The results, reported in Table 3, are expressed as inhibition percentage of the cellular proliferation determined by measuring the cellular proliferation in the cellular cultures treated with the tested compounds with respect to that measured in cellular cultures treated with dimethylsulphoxide 1%.

Test [5] deals with T24 human epithelial cells of bladder cancer. Briefly: Antiproliferative activity, MTT, bladder cancer line T24. It is filed as cell-based. To be noted: Epithelial cell, 96 h, 4 days, vs DMSO 1%, read-out: Inhibition of the proliferative activity (%); for inhibition at 100 µM: 10^-4 M; for inhibition at 10 µM: 10^-5 M; for inhibition at 1 µM: 10^-6 M. Here is the method:
as §1, §2, §3

Test [6] concerns LNCaP human epithelial cells of prostate cancer. Briefly: Antiproliferative activity, MTT, prostate cancer line LNCaP. Format: cell-based. To be noted: 96 h, 4 days, vs DMSO 1%, read-out: Inhibition of the proliferative activity (%); for inhibition at 100 µM: 10^-4 M; for inhibition at 10 µM: 10^-5 M; for inhibition at 1 µM: 10^-6 M. Here is the method:
as §1, §2, §3

In test [7] the test system is 1207 human epithelial cells of bladder cancer. Briefly: Antiproliferative activity, MTT, bladder cancer line 1207. Format: cell-based. Conditions: Epithelial cell, 96 h, 4 days, vs DMSO 1%, read-out: Inhibition of the proliferative activity (%); for inhibition at 100 µM: 10^-4 M; for inhibition at 10 µM: 10^-5 M; for inhibition at 1 µM: 10^-6 M. Here is the method: as §1, §2, §3

In test [8] the test system is human epithelial cellular lines of the prostate cancer and of the bladder cancer. Briefly: Antiproliferative activity in prostate and bladder cancer lines, summary in words. Format: cell-based. Conditions: cellular lines LNCaP and PC3, and 647V, 1207. As to the method:
as §2, §3
The compound of Ex. 7, reported in the Table with the simplified denomination of nitrooxybutyl ester of the aspirin der. with ferulic ac. is active, at 10^−5 concentrations, in prostate tumours as shown by the results obtained on the cellular lines LNCaP and PC3.

Test [9] has as its system 647V human epithelial cells of bladder cancer. Briefly: Antiproliferative activity, MTT, bladder cancer line 647V. It is filed as cell-based. To be noted: 96 h, 4 days, vs DMSO 1%, read-out: Inhibition of the proliferative activity (%); for inhibition at 100 µM: 10^-4 M; for inhibition at 10 µM: 10^-5 M; for inhibition at 1 µM: 10^-6 M. As to the method:
as §1, §2, §3

Test [10] relates to PC3 human epithelial cells of prostate cancer. Briefly: Antiproliferative activity, MTT, prostate cancer line PC3. It is filed as cell-based. To be noted: Epithelial cell, 96 h, 4 days, vs DMSO 1%, read-out: Inhibition of the proliferative activity (%); for inhibition at 100 µM: 10^-4 M; for inhibition at 10 µM: 10^-5 M; for inhibition at 1 µM: 10^-6 M. Here is the method: as §1, §2, §3

With `CC(=O)Oc1ccccc1C(=O)O` [Aspirin, Acetylsalicylic Acid, reference compound], in [1], the “timidine incorporation, With 25 μM Cisplatinum” value was 100% and the “timidine incorporation, Without Cisplatinum” value came out at 438%. Also, in test [2] (HT-29, 500 μM), the activity at 500 µM is 100%. In test [3], the response vs control in vivo at 300 mg/kg amounted to 120%.

For `CC(=O)Oc1ccccc1C(=O)OCc1cccc(CO[N+](=O)[O-])n1` [Ex. 1, 2-acetyloxybenzoic acid 6-(nitrooxymethyl)-2-methylpyridinyl ester hydrochloride], the activity at 10 µM in [2] (HT-29, 10 μM) was found to be 0%.

Compound `CC(=O)Oc1ccccc1C(=O)OCc1ccc(CO[N+](=O)[O-])cn1` [Ex. 3, 2-acetyloxybenzoic acid 5-(nitrooxymethyl)-2-methylpyridinyl ester hydrochloride] registered a response vs control in vivo at 300 mg/kg in test [3] of 5%.

`CC(=O)Oc1ccccc1C(=O)OCc1ncccc1CO[N+](=O)[O-]` [Ex. 4, 2-acetyloxybenzoic acid 3-(nitrooxymethyl)-2-methylpyridinyl ester hydrochloride] came in with a response vs control in vivo at 300 mg/kg in test [3] of 7%.

Take `CC(=O)Oc1ccccc1C(=O)Oc1cccc(CO[N+](=O)[O-])c1` [Ex. 5, 3-nitrooxymethylphenyl ester of the 2-acetoxybenzoic acid]: in test [1], the “timidine incorporation, With 25 μM Cisplatinum” value came out at 46% and the “timidine incorporation, Without Cisplatinum” value was 192%. Also, in test [2] (HT-29, 300 μM), the activity at 300 µM was found to be 40%.

The compound `COc1cc(/C=C/C(=O)Oc2ccc(NC(C)=O)cc2)ccc1OC(=O)CCCO[N+](=O)[O-]` [Ex. 8, trans-3-[4-(4′-nitrooxybutyryloxy)-3-methoxyphenyl]-2-propenoic acid 4-(acetylamino)phenyl ester] gave a response vs control in vivo at 500 mg/kg in [3] of 8%.

As to `CC(=O)Nc1ccc(OC(=O)CCCO[N+](=O)[O-])cc1` [Ex. 9, 4-nitrooxybutanoic acid 4′-acetylamino phenyl ester], the response vs control in vivo at 500 mg/kg in test [3] is 10%.

Regarding `O=C(Oc1cccc(CO[N+](=O)[O-])c1)c1ccccc1O` [Ex. 15, 2-hydroxybenzoic Acid 3-(nitrooxymethyl)phenyl ester], in [1], the “timidine incorporation, With 25 μM Cisplatinum” value came out at 50% and the “timidine incorporation, Without Cisplatinum” value was found to be 246%.

The term inhibition denotes how much of the control response was suppressed. Consider `COc1cc(/C=C/C(=O)OCCCCO[N+](=O)[O-])ccc1OC(=O)C(C)c1ccc(CC(C)C)cc1` (stereo not drawn) [Ex. 16, Trans-3-[4-[α-methyl-[4-(-2-methylpropyl)benzene]acetyloxy]-3-methoxyphenyl]-2-propenoyl 4-(nitrooxy) butyl ester], for which the inhibition at 100 µM in test [4] came to 20%; in [5], 22%; in [6] it was 60%; in test [7], 43%; in test [9] it was 45%; in [10] it was 47%. The inhibition at 10 µM in test [4] was determined as 4%; in [5], 0%; in test [6], 33%; in [7], 0%; in test [9], 0%; in [10], 9%. Besides, the inhibition at 1 µM in test [4] stood at 0%; in test [5], 0%; in test [6], 8%; in [7], 2%; in [9], 0%; in test [10], 4%. The “activity in very aggressive prostate and bladder tumours (in words)” value in test [8] is listed as “active”.

As for `COc1cc(/C=C/C(=O)OCCCCO[N+](=O)[O-])ccc1OC(=O)C(C)c1ccc(-c2ccccc2)c(F)c1` (stereo not drawn) [Ex. 17, trans-3-[4-[2-fluoro-α-methyl-(1,1′-biphenyl)-4-acetyloxy]-3-methoxyphenyl]-2-propenoyl 4-(nitrooxy) butyl ester], the inhibition at 100 µM in test [4] amounted to 13%; in test [5], 23%; in test [6], 58%; in [7], 34%; in [9], 41%; in test [10] it was 53%. Further, the inhibition at 10 µM in [4] turned out to be 2%; in test [5], 0%; in test [6], 26%; in test [7], 0%; in test [9] it was 13%; in [10] it was 20%. Besides, the inhibition at 1 µM amounted to 0% in [4]; 0% in test [5]; 1% in test [6]; 0% in test [7]; 0% in test [9]; 8% in test [10]. The “activity in very aggressive prostate and bladder tumours (in words)” value in test [8] is “active”.

`CC1=C(CC(=O)OCc2cccc(CO[N+](=O)[O-])n2)c2cc(F)ccc2/C1=C\c1ccc([S+](C)[O-])cc1` (centres unmarked) [Ex. 19] showed a response vs control in vivo at 200 mg/kg in test [3] of 23%.

Consider `CC(=O)Oc1ccccc1C(=O)Oc1ccccc1CO[N+](=O)[O-]` [Ex. 20, 2-acetyloxybenzoic acid 2-(nitrooxymethyl)phenyl ester], for which the activity at 20 µM in [2] (HT-29, 20 μM) worked out at 50%.

In turn, `CC(=O)Nc1ccc(O)cc1` [Paracetamol, reference compound] registered a response vs control in vivo at 500 mg/kg in [3] of 160%.

As for `O=C(O)c1ccccc1O` [Salicylic acid, Salicylic Acid, reference compound], in [1], the “timidine incorporation, With 25 μM Cisplatinum” value is recorded as 100% and the “timidine incorporation, Without Cisplatinum” value was 438%.

On to `CC1=C(CC(=O)O)c2cc(F)ccc2/C1=C\c1ccc([S+](C)[O-])cc1` (centres unmarked) [Sulindac, reference compound], for which, in [2] (HT-29, 50 μM), the activity at 50 µM came to 100%. In addition, the response vs control in vivo at 200 mg/kg in test [3] was 115%.
